Measured values: US7199161B2, “Substituted bicylo[3.3.1]nonan-2,4,9-triones as pharmaceutical active ingredients” (Diagenics International Corporation, priority 2002, dated 2007)
Each block holds one compound with its values, some of them ahead of it.

Tests used:
[1] = system: HT29 WT colorectal carcinoma cells; experiment: DNA double-strand breaks, HT29 WT; format: cell-based, human
Protocol: (§1) DNA isolated after treatment of the cells for various times with substance (Ic′) is for this purpose analyzed by gel electrophoresis.
(§2) Determination of the DNA double-strand breaks is performed on ^14C-labeled DNA. For this purpose, [^14C]d-thymidine-labeled cells are treated with various concentrations of substance (Ic′). The DNA is isolated by an adapted method of Chia Chiao et al.
(§3) The DNA fractionated by gel electrophoresis is subsequently stained with ethidium bromide.
(§4) On a transilluminator (302 nm), the intact DNA which has not migrated in the electric field is separated from the fragmented DNA, which has thus migrated into the gel, by extraction. The isolated gel and DNA fragments are liquefied at +80° C. in the presence of hydrochloric acid. After addition of a scintillator it is possible to determine the radioactivity using a liquid scintillation meter (TPI-CARB 2100RT). The measured radioactivity is indicated in […] (cpm).

[2] = system: HT29 SN38 cells (SN38 resistant); experiment: SRB assay, HT29 SN38; format: cell-based, human
Protocol: (§5) The sensitivity of the cell lines to the substance (Ic′) is determined in a so-called sulforhodamine B (SRB) assay.
(§6) The concentration of substance (Ic′) which inhibits cell growth by 50% (IC50, determined from semilogarithmic dose versus effect plots) are indicated.

[3] = system: H460 WT cells (large-cell lung carcinoma); experiment: SRB assay, H460 WT; format: cell-based, human
Protocol: (§7) Six unambiguously characterized tumor cell lines of human origin (native cell lines and those converted into resistant subclones) and two non-tumor cell lines are used for further investigations (table 2).
as §5, §6

[4] = system: A2780 DX5 cells (doxorubicin resistant gp 170+); experiment: SRB assay, A2780 DX5; format: cell-based, human; details: A2780 DX5, doxorubicin resistant gp 170+
Protocol: as §7, §5, §6

[5] = system: M51 DDP cells (cisplatin resistant); experiment: SRB assay, M51 DDP; format: cell-based, human
Protocol: as §5, §6

[6] = system: MCF-7 AD cells (doxorubicin resistant gp 170+); experiment: SRB assay, MCF-7 AD; format: cell-based, human
Protocol: as §7, §5, §6

[7] = system: HCT8 ICID cells (raltitrexed resistant); experiment: SRB assay, HCT8 ICID; format: cell-based, human
Protocol: as §5, §6

[8] = system: A2780 WT cells (adenocarcinoma of ovary); experiment: SRB assay, A2780 WT; format: cell-based, human
Protocol: as §7, §5, §6

[9] = system: tumor cell lines (native and resistant subclones) and non-tumor cell lines
Protocol: as §7, §5, §6

[10] = system: M51 WT cells (carcinoma of stomach); experiment: SRB assay, M51 WT; format: cell-based, human; details: mean ± SD of at least three experiments
Protocol: as §7, §5, §6

Taq polymerase = Taq polymerase (Thermus aquaticus, UniProt P19821); experiment: TSR8 template control experiment (DNA polymerase); format: biochemical; details: maximum concentration 50 μg/ml
Protocol: In order to ensure the effect of substance (Ic′) on telomerase, an effect of substance (Ic′) on DNA polymerase must be ruled out. In a preliminary experiment with TSR8 as internal control, the effect of substance (Ic′) at various concentration levels was ruled out.
Amplification of the TSR8 template depends only on DNA polymerase. Every inhibitor of this enzyme can be detected using the substrate.
The experiment is carried out in triplicates.

[11] = system: HT29 WT cells (adenocarcinoma of colon); experiment: SRB assay, HT29 WT; format: cell-based, human
Protocol: as §5, §6

[12] = system: HT29 24R cells (5-FU resistant); experiment: SRB assay, HT29 24R; format: cell-based, human
Protocol: as §5, §6

[13] = system: H460 WT bronchial carcinoma cells; experiment: DNA double-strand breaks in [14C]d-thymidine-labeled cells, H460 WT; format: cell-based, human; details: up to 10 times the IC50 concentration, 6 hours
Protocol: as §1, §2, §3, §4
The results represent averages and their standard deviation from n=3 independent experiments.

[14] = system: HCT8 WT colon carcinoma cells
Protocol: In this case, tumor cells, e.g. colon carcinoma cells (HCT8 WT), are coincubated with both active ingredients in different dosages in each case for 24 hours (FIG. 9). FIG. 9 represents the coincubation experiment on the cytotoxicity with substance (Ic′) and a specific ERK1/2 inhibitor (MAP kinase inhibitor). HCT8 WT cells were coincubated. The points shown indicate the corresponding ratios (% of the respective IC50 concentration) of the two active ingredients to one another.

3T3 mouse fibroblasts = experiment: SRB assay, 3T3; format: cell-based; details: 3T3 mouse fibroblasts (non-tumor)
Protocol: as §7, §5, §6

[15] = system: HCT8 WT cells (carcinoma of colon); experiment: SRB assay, HCT8 WT; format: cell-based, human
Source text: The target cell used is, inter alia, a bowel cancer cell line of human origin (HCT8 WT).

[16] = system: ERK1/2 protein (MAP kinase); experiment: Western blot analysis of ERK1/2 phosphorylation; format: cell-based, human; details: HCT8 WT, detectable even at a dose corresponding to the IC50
Source text: Phosphorylation of certain signal transduction pathways plays an essential role in the regulation of cell growth and gene expression. The protein ERK1/2 (MAP kinase) belongs to the MAP kinase signal transduction pathway.
Treatment of human colon carcinoma cells (HCT8 WT) with substance (Ic′) leads to phosphorylation of this protein, which is detected in a Western blot analysis (FIG. 8).

human telomerase = target: T1, human telomerase (Homo sapiens, UniProt O14746); experiment: Telomeric Repeat Amplification Assay (TRAP) ELISA; format: biochemical; details: at 50 μg/ml; telomerase from HCT8 WT cells; range 10 to 50 μg/ml tested
T1 construct: human telomerase obtained from cells of a colon carcinoma (HCT8 WT); endogenous in cells; host or cells: HCT8 WT colon carcinoma cells
Protocol: The effect of substance (Ic′) on human telomerase is determined by carrying out the so-called Telomeric Repeat Amplification Assay (TRAP) ELISA, based on the method of N. W. Kim et al.
This method is based on use of the polymerase chain reaction (PCR). This entails, in a first step, a number of (GGTTAG) motifs being attached by means of the telomerase activity to the 3′ end of a biotin-labeled oligonucleotide (TS=telomerase substrate). In a second step, the products extended in this way are amplified by the PCR technique using TS and RP (R=reverse) primers. In this way, a “ladder” of products in increments of 6 bases (initial size=50 nucleotides) is generated. During the amplification, DNP-labeled dCTP is incorporated into the PCR products. Detection and quantification of the synthesized telomerase products using a sandwich ELISA method are a measure of the telomerase enzymatic activity.
The telomerase products carry the biotin-labeled TS primers and bind to the surface of microtiter plates previously coated with streptavidin. An anti-DIG antibody conjugated to POD binds to the […] nucleotides incorporated during the amplification. After addition of the substrate TMB, the telomerase activity is visualized by […] via the onset of the color reaction by the enzyme POD. In this case, the measured absorption is directly proportional to the telomerase activity. […]

[17] = system: MCR-5 diploid embryonic lung fibroblasts; experiment: SRB assay, MCR-5; format: cell-based; details: MCR-5 fibroblasts (non-tumor)
Protocol: as §7, §5, §6

[18] = system: A2780 CP2 cells (cisplatin resistant); experiment: SRB assay, A2780 CP2; format: cell-based, human
Protocol: as §7, §5, §6

[19] = system: HCT8 WT bowel cancer cells; experiment: Cell cycle analysis by flow cytometry (BrdU/PI); format: cell-based, human; details: IC50 concentration, 24 hours
Protocol: Flow cytometric investigations by an adapted method of Tsugita M. et al. are used for the analysis.
Exponentially growing HCT8 WT bowel cancer cells are treated with substance (Ic′) with the determined IC50 concentration for 24 hours, and then the cells are incubated with BrdU. The cells fixed with methanol are subjected to a treatment with a detergent (Triton X-100/HCl) in order to denature the DNA strands. After incubation with the fluorescence-labeled antibody (anti-BrdU mAb, FITC-labeled), the second fluorescent dye (PI, propidium iodide) is added.
The DNA content (propidium iodide fluorescence) and the amount of BrdU taken up (FITC fluorescence) are determined using a Coulter flow cytometer (Coulter EPICS XL). Exemplary results are depicted in FIG. 3a and 3b.
FIG. 3a and 3b show BrdU and PI uptakes into the DNA of HCT8 WT cells, untreated (control, […]) and treated with substance (Ic′) (IC50, 24 hours, FIG. 4b). The depicted results are representative of n=3 independent experiments.

[20] = system: HCT8 SN38 cells (SN38 resistant); experiment: SRB assay, HCT8 SN38; format: cell-based, human
Protocol: as §5, §6

[21] = system: MCF-7 24R cells (5-FU resistant); experiment: SRB assay, MCF-7 24R; format: cell-based, human
Protocol: as §7, §5, §6

[22] = system: MCF-7 WT cells (adenocarcinoma of breast); experiment: SRB assay, MCF-7 WT; format: cell-based, human
Protocol: as §5, §6

topoisomerase I = target: T2, topoisomerase I (Homo sapiens, UniProt P11387); experiment: Topo I unwinding assay (pBR322 plasmid DNA, cell nucleus extract); format: biochemical; details: for concentration for in vitro topoisomerase I inhibition as multiple of the IC50 of tumor growth: multiple of the concentration inhibiting tumor cell growth by 50%
T2 construct: 160 ng of cell nucleus extract with the topoisomerase I present therein; endogenous in cells; host or cells: tumor cell lines (cell nucleus extract)
T2 sequence (P11387 1-765): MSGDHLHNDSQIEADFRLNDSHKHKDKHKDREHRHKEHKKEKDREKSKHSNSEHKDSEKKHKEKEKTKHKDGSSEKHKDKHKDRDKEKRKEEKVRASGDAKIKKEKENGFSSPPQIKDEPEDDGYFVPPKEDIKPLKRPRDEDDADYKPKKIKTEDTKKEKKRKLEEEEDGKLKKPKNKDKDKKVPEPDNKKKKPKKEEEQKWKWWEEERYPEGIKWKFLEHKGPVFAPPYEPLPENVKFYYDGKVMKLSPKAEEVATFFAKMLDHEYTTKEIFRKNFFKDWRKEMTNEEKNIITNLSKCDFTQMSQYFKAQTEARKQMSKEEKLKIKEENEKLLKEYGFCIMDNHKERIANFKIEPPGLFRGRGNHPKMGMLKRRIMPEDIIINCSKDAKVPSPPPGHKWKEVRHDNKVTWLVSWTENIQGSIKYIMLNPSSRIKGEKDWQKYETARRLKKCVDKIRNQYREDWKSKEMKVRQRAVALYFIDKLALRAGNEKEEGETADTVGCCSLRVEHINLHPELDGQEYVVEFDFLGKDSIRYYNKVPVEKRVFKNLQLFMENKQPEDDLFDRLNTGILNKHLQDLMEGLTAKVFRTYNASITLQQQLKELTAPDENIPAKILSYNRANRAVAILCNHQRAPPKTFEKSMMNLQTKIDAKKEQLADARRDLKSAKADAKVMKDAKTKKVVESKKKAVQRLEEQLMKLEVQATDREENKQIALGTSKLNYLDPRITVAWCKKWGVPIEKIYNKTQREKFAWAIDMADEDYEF
Source text: The effect of the substance (Ic′) on topoisomerase I is investigated by carrying out the so-called Topo I unwinding assay. The assay is based on an ATP-independent unwinding of twisted pBR322 plasmid DNA dimers by topoisomerase I. The two different topological forms of the plasmid DNA, the twisted form and unwound, relaxed form, are separated in this investigation by means of an agarose gel. The enzyme topoisomerase I is obtained for this purpose from cell nucleus extracts of the tumor cell lines.
Cell nucleus extracts are obtained by the method of Sullivan with the modifications of Danks et al.

T1 sequence (O14746 whole entry): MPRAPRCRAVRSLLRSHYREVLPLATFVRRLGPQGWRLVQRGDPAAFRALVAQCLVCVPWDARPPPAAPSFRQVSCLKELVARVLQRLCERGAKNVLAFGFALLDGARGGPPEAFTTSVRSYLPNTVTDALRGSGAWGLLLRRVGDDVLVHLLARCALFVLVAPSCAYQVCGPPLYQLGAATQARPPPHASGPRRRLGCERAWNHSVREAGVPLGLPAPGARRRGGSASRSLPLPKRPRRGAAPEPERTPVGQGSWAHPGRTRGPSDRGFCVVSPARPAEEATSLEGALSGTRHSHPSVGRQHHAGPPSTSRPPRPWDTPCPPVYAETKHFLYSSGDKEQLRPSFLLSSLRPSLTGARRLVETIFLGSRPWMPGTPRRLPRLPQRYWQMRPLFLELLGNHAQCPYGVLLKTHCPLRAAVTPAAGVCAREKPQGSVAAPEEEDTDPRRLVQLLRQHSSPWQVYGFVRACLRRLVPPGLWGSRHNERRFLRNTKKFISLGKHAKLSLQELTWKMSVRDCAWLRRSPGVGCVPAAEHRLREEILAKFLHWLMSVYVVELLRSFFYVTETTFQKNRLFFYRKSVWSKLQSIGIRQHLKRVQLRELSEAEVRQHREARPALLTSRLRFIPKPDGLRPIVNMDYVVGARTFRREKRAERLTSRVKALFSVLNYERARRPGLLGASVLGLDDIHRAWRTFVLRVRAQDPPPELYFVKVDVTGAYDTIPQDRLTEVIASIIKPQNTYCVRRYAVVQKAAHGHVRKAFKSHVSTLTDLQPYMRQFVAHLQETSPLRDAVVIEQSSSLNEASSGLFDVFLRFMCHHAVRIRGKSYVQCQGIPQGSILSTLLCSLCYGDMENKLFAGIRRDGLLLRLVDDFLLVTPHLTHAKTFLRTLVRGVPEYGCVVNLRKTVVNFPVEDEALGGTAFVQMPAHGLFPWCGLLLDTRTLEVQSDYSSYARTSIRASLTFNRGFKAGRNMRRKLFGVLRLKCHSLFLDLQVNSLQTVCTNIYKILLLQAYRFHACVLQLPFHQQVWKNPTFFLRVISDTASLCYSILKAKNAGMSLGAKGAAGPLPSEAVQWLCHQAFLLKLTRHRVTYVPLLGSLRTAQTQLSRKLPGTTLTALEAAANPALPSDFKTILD
T1 sequence (O60832 whole entry partner): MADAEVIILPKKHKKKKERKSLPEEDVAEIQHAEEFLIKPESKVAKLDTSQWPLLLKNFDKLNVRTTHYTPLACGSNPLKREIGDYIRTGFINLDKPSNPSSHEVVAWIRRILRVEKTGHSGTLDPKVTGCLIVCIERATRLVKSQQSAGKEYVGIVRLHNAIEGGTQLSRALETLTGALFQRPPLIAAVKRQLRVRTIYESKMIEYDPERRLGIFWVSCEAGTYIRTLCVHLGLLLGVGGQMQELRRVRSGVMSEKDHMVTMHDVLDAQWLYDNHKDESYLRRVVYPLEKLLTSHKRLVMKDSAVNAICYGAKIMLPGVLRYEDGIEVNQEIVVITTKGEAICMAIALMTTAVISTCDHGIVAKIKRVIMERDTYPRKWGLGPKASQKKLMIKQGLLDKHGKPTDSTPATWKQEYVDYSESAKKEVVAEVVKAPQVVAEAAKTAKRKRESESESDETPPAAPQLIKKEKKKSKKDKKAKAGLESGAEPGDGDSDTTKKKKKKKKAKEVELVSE
T1 sequence (Q9NX24 whole entry partner): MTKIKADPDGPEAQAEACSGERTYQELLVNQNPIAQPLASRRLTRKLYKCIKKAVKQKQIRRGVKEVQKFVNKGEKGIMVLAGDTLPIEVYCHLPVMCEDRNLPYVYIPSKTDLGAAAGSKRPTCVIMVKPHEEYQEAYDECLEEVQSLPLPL
T1 sequence (Q9NPE3 whole entry partner): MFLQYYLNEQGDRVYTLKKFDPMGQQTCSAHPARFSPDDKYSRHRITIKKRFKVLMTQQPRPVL
T1 sequence (Q9NY12 whole entry partner): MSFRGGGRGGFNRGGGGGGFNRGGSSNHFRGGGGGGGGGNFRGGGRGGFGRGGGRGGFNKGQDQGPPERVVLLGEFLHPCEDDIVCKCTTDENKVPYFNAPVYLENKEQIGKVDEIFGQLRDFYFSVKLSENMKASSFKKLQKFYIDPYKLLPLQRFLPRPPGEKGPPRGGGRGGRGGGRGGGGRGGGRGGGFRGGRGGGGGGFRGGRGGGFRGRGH
T1 sequence (Q9BUR4 whole entry partner): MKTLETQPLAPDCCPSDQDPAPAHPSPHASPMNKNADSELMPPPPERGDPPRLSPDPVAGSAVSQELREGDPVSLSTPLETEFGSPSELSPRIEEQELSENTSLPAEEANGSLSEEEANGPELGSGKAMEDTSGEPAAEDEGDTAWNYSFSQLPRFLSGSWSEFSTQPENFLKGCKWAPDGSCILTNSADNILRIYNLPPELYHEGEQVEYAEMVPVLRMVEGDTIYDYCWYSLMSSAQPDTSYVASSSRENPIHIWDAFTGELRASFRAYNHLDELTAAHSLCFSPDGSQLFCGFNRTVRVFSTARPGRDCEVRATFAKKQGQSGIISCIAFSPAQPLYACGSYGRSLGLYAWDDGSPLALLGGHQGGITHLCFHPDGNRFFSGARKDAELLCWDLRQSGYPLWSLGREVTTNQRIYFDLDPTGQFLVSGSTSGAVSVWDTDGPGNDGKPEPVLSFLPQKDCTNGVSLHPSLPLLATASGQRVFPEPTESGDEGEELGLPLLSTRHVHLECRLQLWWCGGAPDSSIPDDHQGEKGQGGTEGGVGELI
Sequence of Taq polymerase (P19821 whole entry): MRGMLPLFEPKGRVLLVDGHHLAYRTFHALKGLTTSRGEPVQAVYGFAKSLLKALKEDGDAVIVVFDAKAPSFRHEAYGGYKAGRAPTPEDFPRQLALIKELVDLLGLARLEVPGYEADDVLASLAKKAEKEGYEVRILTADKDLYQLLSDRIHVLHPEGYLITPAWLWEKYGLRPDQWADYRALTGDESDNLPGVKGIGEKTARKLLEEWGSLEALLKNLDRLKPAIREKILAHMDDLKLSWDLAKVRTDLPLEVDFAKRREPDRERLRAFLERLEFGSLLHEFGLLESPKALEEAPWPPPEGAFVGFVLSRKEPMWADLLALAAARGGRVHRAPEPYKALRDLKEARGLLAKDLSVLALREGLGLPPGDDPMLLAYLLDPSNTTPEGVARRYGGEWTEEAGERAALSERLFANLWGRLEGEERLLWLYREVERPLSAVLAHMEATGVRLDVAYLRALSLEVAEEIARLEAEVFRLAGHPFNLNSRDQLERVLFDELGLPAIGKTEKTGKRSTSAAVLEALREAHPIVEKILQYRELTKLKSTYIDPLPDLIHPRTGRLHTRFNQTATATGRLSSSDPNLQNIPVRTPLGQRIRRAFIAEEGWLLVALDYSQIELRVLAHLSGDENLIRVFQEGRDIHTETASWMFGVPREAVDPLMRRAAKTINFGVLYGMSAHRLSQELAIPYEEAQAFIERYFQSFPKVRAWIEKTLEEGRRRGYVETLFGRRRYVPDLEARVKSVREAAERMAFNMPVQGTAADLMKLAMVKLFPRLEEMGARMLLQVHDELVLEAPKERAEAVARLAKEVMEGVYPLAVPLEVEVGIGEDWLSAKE

Compound: 1-Benzoyl-8,8-dimethyl-2-hydroxy-3,5,7-tris-(3-methyl-2-butenyl)bicyclo[3.3.1]non-2-ene-4,9-dione [Substance (Ic′)]
- induction of DNA double-strand breaks [1]: induction of substantial amounts of double-strand breaks
- IC50 [2]: 3.50 ± 1.40 µg/mL
- IC50 [3]: 4.21 ± 0.91 µg/mL
- IC50 [4]: 6.75 ± 1.55 µg/mL
- IC50 [5]: 4.77 ± 0.13 µg/mL
- IC50 [6]: 4.28 ± 0.08 µg/mL
- IC50 [7]: 4.44 ± 0.13 µg/mL
- IC50 [8]: 9.20 ± 0.82 µg/mL
- cytotoxicity for the non-tumor cell lines compared with tumor cell lines [9]: considerably less
- cross-resistance to the indicated cytostatics ([9]; resistant subclones vs native cell lines, SRB assay): no cross-resistance
- IC50 [10]: 5.70 ± 0.21 µg/mL
- inhibition of Taq polymerase (TSR8 template) (Taq polymerase): does not lead to a significant inhibition
- IC50 [11]: 5.25 ± 0.43 µg/mL
- IC50 [12]: 5.18 ± 0.76 µg/mL
- induction of DNA double-strand breaks [13]: induces significant amounts of double-strand breaks
- cytotoxicity on coincubation with a specific ERK1/2 inhibitor (MAP kinase inhibitor) [14]: pronounced synergism
- effect of the combination on tumor cell growth ([14]; 30% of IC50 of substance (Ic′) with 30% of IC50 of the specific ERK1/2 inhibitor, HCT8 WT): inhibition of growth
- IC50 (3T3 mouse fibroblasts): >80.0 µg/mL
- IC50 [15]: 4.23 ± 0.19 µg/mL
- phosphorylation of the ERK1/2 protein [16]: dose-dependent phosphorylation
- inhibition of human telomerase (human telomerase): Complete inhibition
- IC50 [17]: 21.73 ± 6.47 µg/mL
- IC50 [18]: 6.23 ± 0.12 µg/mL
- effect on the cell cycle (BrdU uptake) [19]: inhibition of the synthesis phase
- IC50 [20]: 4.07 ± 0.08 µg/mL
- IC50 [21]: 3.30 ± 0.51 µg/mL
- IC50 [22]: 4.37 ± 0.12 µg/mL
- inhibition of topoisomerase I activity (topoisomerase I; at 100 μg/ml, 160 ng cell nucleus extract): 100%
- concentration for in vitro topoisomerase I inhibition as multiple of the IC50 of tumor growth (topoisomerase I): 20 times

- concentration for in vitro topoisomerase I inhibition as multiple of the IC50 of tumor growth (topoisomerase I): 1000 times
Compound: CC[C@@]1(O)C(=O)OCc2c1cc1n(c2=O)Cc2cc3c(CN(C)C)c(O)ccc3nc2-1 [topotecan, reference compound]
